The text below walks through data of patent publication US20160199445A1, “USE OF ARPIN A NEW INHIBITOR OF THE ARP2/3 COMPLEX FOR THE DIAGNOSIS AND TREATMENT OF DISEASES” (CENTRE NATIONAL DE LA RECHERCHE SCIENTIFIQUE, priority 2013, published 2016).

In data set [1] the test system is Arp2/3 complex. Kind of data set: GST fusion pulldown of Arp2/3 from HeLa cell extract (western blot against ArpC2). Particulars: GST fusions. Format: binding. How it is done: (§1) FIG. 1: Arpin inhibits Arp2/3 activation in vitro. a, Alignment of acidic C-termini of 3 NPFs and of Arpin. […] Pulldown was performed with HeLa cell extract and GST fusions of Arpin full length (FL), Arpin deleted of its last 16 amino-acids (ΔA), the last 16 amino-acids (A) or the VCA domain of N-WASP as a positive control. Arp2/3 binding was assessed by western blot against the ArpC2 subunit. c, Spectrofluorimetry assay to monitor actin polymerisation.
(§2) 6. GST Pull Down, Immunoprecipitations, SDS-PAGE and Western Blots HeLa cells were lysed in 50 mM Tris-HCl, 150 mM NaCl, 1 mM EDTA, 1 mM DTT, 0.5% Triton-X100, 5% glycerol, pH 7.5. 20 μg of GST fusion protein associated with 20 μl of glutathione sepharose 4B beads (GE […]) were incubated with 1 ml of HeLa cell extracts for 2 h at 4° C. Beads were washed and analysed by western blot.
Background: Immunoblotting shows a protein as a band on a membrane.

The test system of data set [2] is Arp2/3 complex. Kind of data set: Assembly of branched actin networks monitored by TIRF microscopy. Format: biochemical. Particulars: 1 μM actin, 150 nM VCA, 80 nM Arp2/3, Arpin at 5 μM; 5, 10, 15 and 20 min. The procedure: as §1
FIG. 10: Quantification of Arpin inhibition on the generation of branched actin networks. Conditions as in FIG. 1d. Images were extracted from the TIRF movies, 5, 10, 15 and 20 min after initiation of the reaction. The number of branches and filaments were counted and the ratio determined.
(§3) Pyrene actin assays and monitoring of the branching reaction were performed as described in reference 38 with the conditions described in figure legends. VCA refers to the VCA domain of WAVE1 purified as described^39.

In data set [3] the test system is Arp2/3 complex. The experiment in a line: Competition pulldown: HeLa cell extract and GST N-WASP VCA immobilized on glutathione beads. Particulars: 5 μM GST N-WASP VCA; Arpin/ArpinΔA 18 μM, ArpinA 304 μM and serial 2-fold dilutions. Format: binding. The procedure: as §1
(§4) Arp2/3 is displaced from its interaction with 5 μM GST N-WASP VCA immobilized on glutathione beads by the Arpin Acidic peptide (304 μM and serial 2-fold dilutions).
as §2

A further data set concerns MDA-MB-231 cells. The experiment in a line: Electroporation of MDA-MB-231 cells with purified Arpin; analysis of cell migration. Format: cell-based, human. The source says:
FIG. 27: Electroporation of MDA-MB-231 cells with purified Arpin; analysis of cell migration.
Purified recombinant Arpin can be introduced efficiently into various cell types by electroporation as shown in FIG. 26 with retinal pigment epithelial (RPE-I) cells, mouse embryonic fibroblasts (MEFs) and breast invasive human cell line MDA-MB-231. MDA-MB-231 cells depleted of Arpin migrates faster and more directionally than their respective non-targeting controls (shCtrl).

The subject of the next data set is trout keratocytes. Kind of data set: Microinjection of purified protein into migrating fish keratocytes. Format: cell-based, brook trout (Salvelinus fontinalis). Particulars: injected fish keratocytes; for turning (direction autocorrelation): n≧8, P<0.05 between 16 and 272 s. The text has this: FIG. 24: Arpin microinjection induces fish keratocyte to turn. a, Trout keratocytes were micro-injected with purified full length Arpin, ArpinΔA or buffer as control. Upon micro-injection of Arpin, lamellipodia were modified and the cells turned. Scale bar, 20 μm. b, Quantifications of the indicated parameters. Mean±sem; n≧8, * P<0.05, *** P<0.001, ANOVA. c, Kymograph of the Arpin microinjected keratocyte. The leading edge undergoes cycles of protrusions and retractions. d, Model. Directional persistence of migration in this cell system requires a positive feedback loop. Branched actin is sensed and activates Rac as a response. In this context, WAVE closes a positive feedback loop. In contrast, Arpin closes a negative feedback loop. These two nested positive and negative feedback loops can account for the oscillatory behavior of the leading edge observed upon Arpin micro-injection.
FIG. 25: Procedures to quantify fish keratocyte migration. a, Kymograph analysis. Lamellipodial dynamics were studied along a one-pixel-wide line oriented in the direction of protrusions, using the MultiKymograph plug-in in ImageJ. Protrusion velocity was the average of all protrusion slopes at the front of the cell. Projections along the distance axis and the time axis, gave, respectively, length and duration of the protrusion. Cell speed was determined using the slope of the dashed line indicating the rear of the cell. b, Outline analysis. Cell contours were defined using CellTrack software (http://db.cse.ohio-state.edu/CellTrack) and manually adjusted when necessary. The cell from frame t is overlayed with the same cell in frame t+100 s, using their center of mass as a reference. The non-overlapping areas are summed up to give the cell deformation between these two frames. […]
Keratocytes were isolated from scales of freshly killed brook trout (Salvelinus fontinalis) as previously described^41 and imaged by phase contrast on an inverted Zeiss Axioscope using ×63 optics, and a halogen lamp as light source. […] Contours were analysed using the CellTrack software (OHIO STATE UNIVERSITY). […]

For data set [4], the system named is Arp2/3 complex. Kind of data set: Pyrene-actin polymerisation assay (spectrofluorimetry). The format is biochemical. Particulars: for inhibition of VCA-activated Arp2/3 actin polymerisation: 2 μM actin (10% pyrene-labelled), 500 nM VCA, 20 nM Arp2/3. How it is done: as §1
Conditions: 2 μM Actin (10% pyrene-labelled), 20 nM Arp2/3, 500 nM Scar VCA, 5 μM Arpin.
FIG. 8: Determination of apparent Kd from Arpin inhibition of Arp2/3 nucleation. a, Arpin inhibits Arp2/3 activation in the pyrene-actin assay.
as §4, §3

Data set [5] addresses Arp2/3 complex. Kind of data set: Fluorescence anisotropy based determination of Kd (labelled ArpinA peptide, purified Arp2/3 complex). The format is binding. Particulars: for displacement of labelled ArpinA peptide bound to the Arp2/3 complex: titration of labelled ArpinA peptide/Arp2/3 complex with purified protein. The procedure:
FIG. 5: Arpin directly binds to the Arp2/3 complex with a dissociation constant of 200 nM. a, Fluorescence anisotropy measurements of labelled ArpinA peptide binding at equilibrium to the purified Arp2/3 complex at the indicated concentrations. b, Labelled ArpinA peptide bound to the Arp2/3 complex was then titrated with purified Arpin FL, ArpinΔA or unlabelled ArpinA peptide as indicated. […] Curves that best fit the values yield the indicated equilibrium constants.
The ArpinA peptide was synthesized and labelled with 5-TAMRA at the N-terminus (PROTEOGENIX). The peptide was excited with polarised light at 549 nm and emitted light was detected at 573 nm using a MOS450 fluorimeter (BIOLOGIC). Measurements were made for 60 s at 1 point/s and the average anisotropy was calculated with the Biologic software. Fits were performed as described in reference 40.

In a further data set the test system is prechordal plate cells. Kind of data set: Prechordal plate cell migration and protrusions in morpholino-injected zebrafish embryos. Format: in vivo. The text has this:
FIG. 17: Arpin regulates protrusion frequency of prechordal plate cells and their collective migration in zebrafish embryos. a, In situ hybridisation of arpin probe in zebrafish embryos at different stages. arpin mRNAs are maternally deposited. During gastrulation, arpin is expressed in hypoblast, which includes the prechordal plate. b, 3D trajectories of prechordal plate cells in embryos injected with control or arpin morpholino. During fish gastrulation, prechordal plate cells migrate collectively in a straight direction from the margin of the embryo towards the animal pole^32,33. […] Lateral displacement is the cell movement perpendicular to main direction of the migration. Distance between cells refers to the average distance of the nucleus of a given cell to the nuclei of its 5 closest neighbors. Mean±sem; n≧1469; *** P<0.001, t-test. c, At the onset of gastrulation prechordal plate cells derived from morpholino injected embryos were transplanted into the prechordal plate of an untreated host embryo at the same stage in order to allow imaging of cell autonomous effects on protrusion formation. Donor embryos are injected with control or arpin morpholinos and mRNAs encoding Lifeact-mCherry as well as GFP-Arpin for the rescue. Time lapse imaging of injected cells is performed by epifluorescence to reveal Lifeact a marker of filamentous actin, which stains actin-based protrusions. […]

As to “Arpin: protein of SEQ ID NO: 1, product of human C15orf38 gene (residues 1-226); new inhibitor of the Arp2/3 complex”, in the data set on Arp2/3 complex [1], the “Arp2/3 binding in pulldown” value is given as “binds to the Arp2/3 complex through its acidic C-terminal region”. The “frequency of branches in actin networks (ratio branches/filaments)” value in the data set with Arp2/3 complex [2] is on record as “decreases the frequency of branches in actin networks”. In addition, the “competition with the NPF (VCA) for Arp2/3 binding” value (shortened to “competition with the NPF (VCA)”) in the data set with Arp2/3 complex [3] is listed as “Arp2/3 is displaced from its interaction with the VCA”. The “speed and persistence of migration” value in the data set on MDA-MB-231 cells (Arpin-depleted MDA-MB-231 cells electroporated with purified Arpin) was “speed and persistence decreased”. Besides, the “idling (active movement)” value in the data set on MDA-MB-231 cells (MDA-MB-231 cells electroporated with Arpin protein) was “more idling (less active movement)”. Moreover, in the data set on trout keratocytes (n≧8, P<0.001), the “territory explored (Mean Square Displacement)” value is listed as “explore a smaller territory than the controls”. For the same substance, the “turning (direction autocorrelation)” value in the data set with trout keratocytes was “turn more than wild type”. In the data set with Arp2/3 complex [4] (2 μM Actin (10% pyrene-labelled), 20 nM Arp2/3, 500 nM Scar VCA, 5 μM Arpin), the “effect on spontaneous actin nucleation and activation of the Arp2/3 complex” value was “does not affect spontaneous actin nucleation and does not activate the Arp2/3 complex”. Moreover, in the data set with Arp2/3 complex [4], the “inhibition of VCA-activated Arp2/3 actin polymerisation” value (from here on “inhibition”) was “inhibited actin polymerisation in a dose-dependent manner”. Also, the Kd at Arp2/3 complex [4] (in a mixture including actin and the VCA, best fit of number of actin barbed ends, read-out: apparent Kd for the Arp2/3 complex from inhibition of Arp2/3 nucleation) was 760 ± 156 nM; at Arp2/3 complex [5] (fluorescence anisotropy, purified Arp2/3 complex, read-out: dissociation constant for binding to the Arp2/3 complex) it was 200 nM. The “displacement of labelled ArpinA peptide bound to the Arp2/3 complex” value in the data set with Arp2/3 complex [5] is “displaces the labelled ArpinA peptide more efficiently than the A peptide”.
“ArpinA: ArpinA peptide, residues 211-226 of full length Arpin (last 16 amino-acids, EIREQGDGAEDEEWDD)”: in the data set on Arp2/3 complex [3], the “competition with the NPF (VCA)” value is recorded as “competes with the NPF for Arp2/3 binding”. Besides, the “inhibition” value with Arp2/3 complex [4] is on record as “inhibits Arp2/3 activation in a dose dependent manner”; with Arp2/3 complex [4] (listed as Acidic peptide), “sufficient for this inhibition, although it was less effective than full length Arpin”.
Turning to “ArpinΔA: Arpin deleted of its last 16 amino-acids (residues 1-210); human or zebrafish recombinant”, in the data set on Arp2/3 complex [3], the “competition with the NPF (VCA)” value is on record as “not”. The “turning (direction autocorrelation)” value with trout keratocytes is on record as “turn more than wild type but less than wild type Arpin injected keratocytes”. Further, the “inhibition” value in the data set on Arp2/3 complex [4] was “not”. The “displacement of labelled ArpinA peptide bound to the Arp2/3 complex” value with Arp2/3 complex [5] is listed as “unable to displace the ArpinA peptide”.
As to “GTTGTCATAAATACGACTCATCTTC (all phosphorodiamidate morpholino (PMO)) [arpin morpholino]”, in the data set on prechordal plate cells (embryos injected with control or arpin morpholino, n≧1469, P<0.001), the “dispersion of prechordal plate cells (lateral displacement, distance between cells)” value was “induces dispersion as evidenced by increased lateral cell displacement and a higher distance between cells”. In addition, the “probability of presence of protrusions and their duration” value with prechordal plate cells (transplanted prechordal plate cells from morpholino injected embryos, P<0.05) is given as “increases the probability of presence of protrusions”.
